# Legend:
# field sandbur = assay: Test G preemergence test; assay type: in vivo, Cenchrus incertus; conditions: scale 0 to 100
# common chickweed = assay: Test F preemergence test; assay type: in vivo, Stellaria media; conditions: scale 0 to 100; for Chickweed plant response rating: 62 g ai/ha
# Outline: (§1)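 Compounds in a non-phytotoxic solvent formulation with surfactant were applied before emergence after sowing, or, for sugarcane, also postemergence. Evaluation was visual, against controls, after 14 to 21 greenhouse days.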
# common sowthistle = assay: Test F preemergence test; assay type: in vivo, Sonchus oleraceous; conditions: scale 0 to 100; for Sowthistle plant response rating: 62 g ai/ha
# Outline: as §1
# wild oat = assay: Test D preemergence test; assay type: in vivo, Avena fatua; conditions: scale 0 to 100
# Description: (§2) Seeds of plant species selected from annual bluegrass (Poa annua), blackgrass (Alopecurus myosuroides), downy bromegrass (Bromus tectorum), field violet (Viola arvensis), green foxtail (Setaria viridis), Italian ryegrass (Lolium multiflorum), littleseed canarygrass (Phalaris minor), spring wheat (Triticum aestivum), wild oat (Avena fatua), […]), winter barley (Hordeum vulgare), and winter wheat (Triticum aestivum) were planted and treated preemergence with test chemicals formulated in a non-phytotoxic solvent mixture which included a surfactant. […] A dash (-) response means no test result.
# winter barley = assay: Test C postemergence test; assay type: in vivo, Hordeum vulgare; conditions: for Plant response rating (0 to 100), Barley: 31 g ai/ha; for Plant response rating, Barley: scale 0 to 100, 0 no effect, 100 complete control
# Outline: (§3)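 Postemergence sprays of formulated test chemicals on plants 2 to 18 cm tall (1- to 4-leaf stage). Greenhouse hold for 13 to 15 days, then visual rating of each species against untreated controls; dash means no test result.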
# barnyardgrass = assay: Test G preemergence test; assay type: in vivo, Echinochloa crus-galli; conditions: scale 0 to 100
# Russian thistle = assay: Test F preemergence test; assay type: in vivo, Salsola kali; conditions: scale 0 to 100
# Outline: as §1
# canarygrass = assay: Test C postemergence test; assay type: in vivo, Phalaris minor; conditions: for Plant response rating (0 to 100), Canarygrass: 31 g ai/ha; for Plant response rating, Canarygrass: scale 0 to 100, 0 no effect, 100 complete control
# Outline: as §3
# corn = assay: Test G preemergence test; assay type: in vivo, Zea mays; conditions: scale 0 to 100
# soybean = assay: Test G preemergence test; assay type: in vivo, Glycine max; conditions: scale 0 to 100
# Italian ryegrass = assay: Test D preemergence test; assay type: in vivo, Lolium multiflorum; conditions: scale 0 to 100
# Description: as §2
# giant foxtail = assay: Test G preemergence test; assay type: in vivo, Setaria faberii; conditions: scale 0 to 100
# cotton = assay: Test G preemergence test; assay type: in vivo, Gossypium hirsutum; conditions: scale 0 to 100
# annual bluegrass = assay: Test D preemergence test; assay type: in vivo, Poa annua; conditions: scale 0 to 100
# Description: as §2
# chickweed = assay: Test C postemergence test; assay type: in vivo, Stellaria media; conditions: for Plant response rating (0 to 100), Chickweed: 31 g ai/ha; for Plant response rating, Chickweed: scale 0 to 100, 0 no effect, 100 complete control
# Outline: as §3
# millet = assay: Test G preemergence test; assay type: in vivo, Panicum miliaceum; conditions: scale 0 to 100
structure (smiles),measurement,setting,value
Cn1nc(C(F)(F)F)c(C[S+]([O-])c2cccc[n+]2[O-])c1OC(F)F (stereo not shown) [Compound 3],"Plant response rating, Sandbur",field sandbur; 31 g ai/ha,0
same,"Plant response rating, Sandbur",field sandbur; 62 g ai/ha,35
same,"Plant response rating, Sandbur",field sandbur; 125 g ai/ha,95
same,"Plant response rating, Sandbur",field sandbur; 250 g ai/ha,95
same,"Plant response rating, Chickweed","common chickweed; 8 g ai/ha, preemergence",25
same,Chickweed plant response rating,common chickweed; Preemergence,100
same,"Plant response rating, Chickweed","common chickweed; Preemergence, 16 g ai/ha",98
same,"Plant response rating, Chickweed","common chickweed; Preemergence, 31 g ai/ha",100
same,"Plant response rating, Sowthistle","common sowthistle; 8 g ai/ha, preemergence",0
same,"Plant response rating, Sowthistle","common sowthistle; 16 g ai/ha, preemergence",0
same,Sowthistle plant response rating,common sowthistle; Preemergence,100
same,"Plant response rating, Sowthistle","common sowthistle; Preemergence, 31 g ai/ha",65
same,"Plant response rating, Oat, Wild",wild oat; 31 g ai/ha,0
same,"Plant response rating, Oat, Wild",wild oat; 62 g ai/ha,0
same,"Plant response rating, Oat, Wild",wild oat; 125 g ai/ha,10
same,"Plant response rating, Oat, Wild",wild oat; 250 g ai/ha,20
same,"Plant response rating (0 to 100), Barley",winter barley,0
same,"Plant response rating, Barley",winter barley; 62 g ai/ha,0
same,"Plant response rating, Barley",winter barley; 125 g ai/ha,0
same,"Plant response rating, Barley",winter barley; 250 g ai/ha,0
same,"Plant response rating, Barnyardgrass",barnyardgrass; 31 g ai/ha,0
same,"Plant response rating, Barnyardgrass",barnyardgrass; 62 g ai/ha,70
same,"Plant response rating, Barnyardgrass",barnyardgrass; 125 g ai/ha,100
same,"Plant response rating, Barnyardgrass",barnyardgrass; 250 g ai/ha,100
same,"Plant response rating, Russian Thistle","Russian thistle; 8 g ai/ha, preemergence",0
same,Russian Thistle plant response rating,"Russian thistle; 62 g ai/ha, Preemergence",100
same,"Plant response rating, Russian Thistle","Russian thistle; Preemergence, 16 g ai/ha",0
same,"Plant response rating, Russian Thistle","Russian thistle; Preemergence, 31 g ai/ha",35
same,"Plant response rating (0 to 100), Canarygrass",canarygrass,0
same,"Plant response rating, Canarygrass",canarygrass; 62 g ai/ha,0
same,"Plant response rating, Canarygrass",canarygrass; 125 g ai/ha,0
same,"Plant response rating, Canarygrass",canarygrass; 250 g ai/ha,0
same,"Plant response rating, Corn",corn; 31 g ai/ha,0
same,"Plant response rating, Corn",corn; 62 g ai/ha,0
same,"Plant response rating, Corn",corn; 125 g ai/ha,10
same,"Plant response rating, Corn",corn; 250 g ai/ha,60
same,"Plant response rating, Soybean",soybean; 31 g ai/ha,0
same,"Plant response rating, Soybean",soybean; 62 g ai/ha,15
same,"Plant response rating, Soybean",soybean; 125 g ai/ha,20
same,"Plant response rating, Soybean",soybean; 250 g ai/ha,35
same,"Plant response rating, Ryegrass, Italian",Italian ryegrass; 31 g ai/ha,0
same,"Plant response rating, Ryegrass, Italian",Italian ryegrass; 62 g ai/ha,35
same,"Plant response rating, Ryegrass, Italian",Italian ryegrass; 125 g ai/ha,45
same,"Plant response rating, Ryegrass, Italian",Italian ryegrass; 250 g ai/ha,95
same,"Plant response rating, Foxtail, Giant",giant foxtail; 31 g ai/ha,0
same,"Plant response rating, Foxtail, Giant",giant foxtail; 62 g ai/ha,75
same,"Plant response rating, Foxtail, Giant",giant foxtail; 125 g ai/ha,100
same,"Plant response rating, Foxtail, Giant",giant foxtail; 250 g ai/ha,100
same,"Plant response rating, Cotton",cotton; 31 g ai/ha,0
same,"Plant response rating, Cotton",cotton; 62 g ai/ha,0
same,"Plant response rating, Cotton",cotton; 125 g ai/ha,10
same,"Plant response rating, Cotton",cotton; 250 g ai/ha,25
same,"Plant response rating, Bluegrass",annual bluegrass; 31 g ai/ha,0
same,"Plant response rating, Bluegrass",annual bluegrass; 62 g ai/ha,20
same,"Plant response rating, Bluegrass",annual bluegrass; 125 g ai/ha,100
same,"Plant response rating, Bluegrass",annual bluegrass; 250 g ai/ha,100
same,"Plant response rating (0 to 100), Chickweed",chickweed,10
same,"Plant response rating, Chickweed",chickweed; 62 g ai/ha,70
same,"Plant response rating, Chickweed",chickweed; 125 g ai/ha,85
same,"Plant response rating, Chickweed",chickweed; 250 g ai/ha,95
same,"Plant response rating, Millet",millet; 31 g ai/ha,0
same,"Plant response rating, Millet",millet; 62 g ai/ha,0
same,"Plant response rating, Millet",millet; 125 g ai/ha,15
same,"Plant response rating, Millet",millet; 250 g ai/ha,90
Cc1cc[n+]([O-])c(S(=O)(=O)Cc2c(C(F)(F)F)nn(C)c2OC(F)F)c1 [Compound 2],"Plant response rating, Sandbur",field sandbur; 31 g ai/ha,0
same,"Plant response rating, Sandbur",field sandbur; 62 g ai/ha,0
same,"Plant response rating, Sandbur",field sandbur; 125 g ai/ha,85
same,"Plant response rating, Sandbur",field sandbur; 250 g ai/ha,100
same,"Plant response rating, Chickweed","common chickweed; 8 g ai/ha, preemergence",10
same,Chickweed plant response rating,common chickweed; Preemergence,100
same,"Plant response rating, Chickweed","common chickweed; Preemergence, 16 g ai/ha",80
same,"Plant response rating, Chickweed","common chickweed; Preemergence, 31 g ai/ha",95
same,"Plant response rating, Sowthistle","common sowthistle; 8 g ai/ha, preemergence",0
same,"Plant response rating, Sowthistle","common sowthistle; 16 g ai/ha, preemergence",0
same,Sowthistle plant response rating,common sowthistle; Preemergence,100
same,"Plant response rating, Sowthistle","common sowthistle; Preemergence, 31 g ai/ha",60
same,"Plant response rating, Oat, Wild",wild oat; 31 g ai/ha,0
same,"Plant response rating, Oat, Wild",wild oat; 62 g ai/ha,0
same,"Plant response rating, Oat, Wild",wild oat; 125 g ai/ha,0
same,"Plant response rating, Oat, Wild",wild oat; 250 g ai/ha,10
same,"Plant response rating (0 to 100), Barley",winter barley,0
same,"Plant response rating, Barley",winter barley; 62 g ai/ha,0
same,"Plant response rating, Barley",winter barley; 125 g ai/ha,0
same,"Plant response rating, Barley",winter barley; 250 g ai/ha,0
same,"Plant response rating, Barnyardgrass",barnyardgrass; 31 g ai/ha,15
same,"Plant response rating, Barnyardgrass",barnyardgrass; 62 g ai/ha,100
same,"Plant response rating, Barnyardgrass",barnyardgrass; 125 g ai/ha,100
same,"Plant response rating, Barnyardgrass",barnyardgrass; 250 g ai/ha,100
same,"Plant response rating, Russian Thistle","Russian thistle; 8 g ai/ha, preemergence",0
same,"Plant response rating, Russian Thistle","Russian thistle; Preemergence, 16 g ai/ha",0
same,"Plant response rating, Russian Thistle","Russian thistle; Preemergence, 31 g ai/ha",0
same,"Plant response rating (0 to 100), Canarygrass",canarygrass,0
same,"Plant response rating, Canarygrass",canarygrass; 62 g ai/ha,0
same,"Plant response rating, Canarygrass",canarygrass; 125 g ai/ha,0
same,"Plant response rating, Canarygrass",canarygrass; 250 g ai/ha,0
same,"Plant response rating, Corn",corn; 31 g ai/ha,0
same,"Plant response rating, Corn",corn; 62 g ai/ha,0
same,"Plant response rating, Corn",corn; 125 g ai/ha,0
same,"Plant response rating, Corn",corn; 250 g ai/ha,10
same,"Plant response rating, Soybean",soybean; 31 g ai/ha,0
same,"Plant response rating, Soybean",soybean; 62 g ai/ha,0
same,"Plant response rating, Soybean",soybean; 125 g ai/ha,0
same,"Plant response rating, Soybean",soybean; 250 g ai/ha,0
same,"Plant response rating, Ryegrass, Italian",Italian ryegrass; 31 g ai/ha,0
same,"Plant response rating, Ryegrass, Italian",Italian ryegrass; 62 g ai/ha,0
same,"Plant response rating, Ryegrass, Italian",Italian ryegrass; 125 g ai/ha,30
same,"Plant response rating, Ryegrass, Italian",Italian ryegrass; 250 g ai/ha,50
same,"Plant response rating, Foxtail, Giant",giant foxtail; 31 g ai/ha,0
same,"Plant response rating, Foxtail, Giant",giant foxtail; 62 g ai/ha,35
same,"Plant response rating, Foxtail, Giant",giant foxtail; 125 g ai/ha,100
same,"Plant response rating, Foxtail, Giant",giant foxtail; 250 g ai/ha,100
same,"Plant response rating, Cotton",cotton; 31 g ai/ha,0
same,"Plant response rating, Cotton",cotton; 62 g ai/ha,0
same,"Plant response rating, Cotton",cotton; 125 g ai/ha,0
same,"Plant response rating, Cotton",cotton; 250 g ai/ha,0
same,"Plant response rating, Bluegrass",annual bluegrass; 31 g ai/ha,20
same,"Plant response rating, Bluegrass",annual bluegrass; 62 g ai/ha,40
same,"Plant response rating, Bluegrass",annual bluegrass; 125 g ai/ha,100
same,"Plant response rating, Bluegrass",annual bluegrass; 250 g ai/ha,100
same,"Plant response rating (0 to 100), Chickweed",chickweed,0
same,"Plant response rating, Chickweed",chickweed; 62 g ai/ha,0
same,"Plant response rating, Chickweed",chickweed; 125 g ai/ha,5
same,"Plant response rating, Chickweed",chickweed; 250 g ai/ha,80
same,"Plant response rating, Millet",millet; 31 g ai/ha,0
same,"Plant response rating, Millet",millet; 62 g ai/ha,0
same,"Plant response rating, Millet",millet; 125 g ai/ha,75
same,"Plant response rating, Millet",millet; 250 g ai/ha,100
